From patent publication US12503456B2, “Substituted pyrimidines and 1,3,5-triazines as RHOJ inhibitors” (Fondazione Istituto Italiano Di Tecnologia, priority 2017, dated 2025) come the findings set out here.

Type in all cases: cell-based
Assay [1] concerns melanoma cells. Description: Cell viability assay (Cell Titer-Glo), inhibitor alone or with Cisplatin. As to the method:
Cells were seeded at 10,000 cells/well in 96-well plates and incubated for 24 h at 37° C. with 5% CO2. […] The cell viability was determined using the Cell Titer-Glo luminescent cell viability assay kit (Promega, Madison, WI), according to the manufacturer's instructions. Luminescence was measured using a DTX 800 microplate reader (Coulter). The half-maximal inhibitory concentration (IC50) values were calculated using the GraphPad Prism software. The assay was done by conducting 3 independent experiments.
(In general: In ATP-based viability assays light output follows the ATP content of the culture.)

Assay [2] has as its target T1, RhoJ PAK interaction (Homo sapiens, UniProt Q9H4E5).
T1 construct: host or cells: WM3248 cells
Description: Cdc42 activation assay (PAK1 PBD bead pull-down, immunoblot). The note with it: cell lysates from WM3248 cells, PAK coupled beads, FIG. 2. As to the method: A Cdc42 activation assay was performed according the manufacturer's protocol (Cell Biolabs, San Diego, CA). Briefly, cells treated with the inhibitor were lysed and either loaded with GDP or GTPyS. Agarose beads conjugated with the PAK1 PBD domain pulled down Cdc42, Rac1, or RhoJ only when GTP-bound. Lysates were then immunoblotted with indicated Abs. Results are illustrated in FIG. 2. […] Briefly, cells were treated with compound 1 (ARN12405) and cell lysates were prepared and incubated with PAK coupled beads. Immunoprecipitated proteins were subjected to SDS PAGE and immunoblotted with a (A) RhoJ antibody, (B) Cdc42 antibody, (C) Rac1 antibody, (D) Cells were treated with one of a panel of RhoJ interaction inhibitors at a concentration of 10 μm or 50 μm (see FIG. 2, panels A-D). Lysates were prepared, incubated with PAK coupled beads, and immunoprecipitated proteins were immunoblotted with a RhoJ antibody.
(In general: In western blotting, separated proteins are transferred to a membrane and probed.)

In assay [3] the test system is WM3248 melanoma cells. Description: Flow cytometric analyses for apoptosis (Annexin V and PI). The following applies: 24 hours, FIG. 1. On the procedure: Approximately 1×10^6 melanoma cells treated with inhibitors for 24 hours and were then trypsinized and washed with PBS, the single-cell suspensions were incubated with Alexa Fluor-Annexin V and propidium iodide (PI) (V13245; Invitrogen) per the manufacturer's protocol and were subjected to flow cytometric analysis. In all cases, cell debris was gated out on the basis of forward scatter and side scatter analysis. Data was analyzed using FlowJo (Ashland, OR). Results are illustrated in FIG. 1, wherein WM3248 melanoma cells were treated with the indicated doses of compound 1 (ARN12405) and apoptosis was measured by flow cytometry using Annexin V and PI.

Where [4] appears, read: inhibitor (1.25-50 μM) with Cisplatin at 20 μM, 24 hours, Cell Titer-Glo, 3 independent experiments, read-out: IC50 (CisPt).

Read-outs that look alike come from different tables or passages of the source.

T1 sequence (Q9H4E5 1-211 limits assumed): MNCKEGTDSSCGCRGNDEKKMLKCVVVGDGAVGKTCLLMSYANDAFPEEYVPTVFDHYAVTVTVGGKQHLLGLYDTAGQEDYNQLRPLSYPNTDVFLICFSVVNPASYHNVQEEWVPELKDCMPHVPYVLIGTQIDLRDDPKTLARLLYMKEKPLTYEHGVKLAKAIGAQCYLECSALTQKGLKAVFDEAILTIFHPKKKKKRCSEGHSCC

A word on the IC50: it is the concentration at which inhibition is half-maximal. Consider `Fc1ccc(-c2cc(Nc3ccccc3)nc(C3CCCNC3)n2)cc1` (stereo not shown) [Compound 7], for which, in assay [1] (setting [4]), the half-maximal inhibitory concentration (IC50) was 32 µM.

Regarding `Clc1ccc(Nc2cc(-c3ccccc3)nc(C3CCCNC3)n2)cc1` (stereo not shown) [Compound 4], in assay [1] (setting [4]), the IC50 was found to be 7 µM. `Clc1ccc(Nc2cc(-c3cccnc3)nc(C3CCCNC3)n2)cc1` (stereo not shown) [Compound 2]: the 50% inhibitory concentration (IC50) in assay [1] (setting [4]) was 11.5 µM. The same measure, in the same setting: under `Clc1cccc(Nc2cc(-c3ccncc3)nc(C3CCCNC3)n2)c1` (stereo not shown) [Compound 5] stands 42.3 µM. Consider `Clc1ccc(Nc2cc(-c3ccncc3)nc(C3CCCNC3)n2)cc1` (stereo not shown) [Compound 1], for which, in assay [2], the “RhoJ PAK interaction in cell lysates (SDS PAGE and immunoblotting)” value was “block of RhoJ PAK interaction”. Moreover, the “apoptosis measured by flow cytometry using AnnexinV and PI” value in assay [3] is “apoptosis induced”. The IC50 in assay [1] (setting [4]) is 12.8 µM. For the molecule `CN(C)c1ccc(Nc2cc(-c3ccccc3)nc(C3CCCNC3)n2)cc1` (stereo not shown) [Compound 8, N1,N1-dimethyl-N4-[6-phenyl-2-(3-piperidyl)pyrimidin-4-yl]benzene-1,4-diamine], the IC50 in assay [1] (setting [4]) turned out to be 31.4 µM. `COc1ccc(Nc2cc(-c3ccccc3)nc(C3CCCNC3)n2)cc1` (stereo not shown) [Compound 9, N-(4-methoxyphenyl)-6-phenyl-2-(3-piperidyl)pyrimidin-4-amine]: the IC50 in assay [1] (24 h, read-out: IC50 (alone)) is over 50 µM; in assay [1] (setting [4]), over 50 µM. As for `COc1cccc(Nc2cc(-c3ccccc3)nc(C3CCNCC3)n2)c1` [Compound 15, N-(3-methoxyphenyl)-6-phenyl-2-(4-piperidyl)pyrimidin-4-amine], in assay [1] (setting [4]), the IC50 came out at 22.2 µM.

On to `Clc1ccc(Nc2cc(-c3ccccn3)nc(C3CCCNC3)n2)cc1` (stereo not shown) [Compound 3], for which, in assay [1] (setting [4]), the IC50 is 38.2 µM. Take `CN(C)c1ccc(Nc2cc(-c3ccccc3)nc(C3CCOCC3)n2)cc1` [Compound 16, N4,N4-dimethyl-N1-(6-phenyl-2-tetrahydropyran-4-yl-pyrimidin-4-yl)benzene-1,4-diamine]: the concentration for half-maximal inhibition (IC50) in assay [1] (24 h, read-out: IC50 (alone)) was over 50 µM; in assay [1] (setting [4]), over 50 µM. With `CN(C)c1ccc(Nc2cc(-c3ccccc3)nc(C3CCNCC3)n2)cc1` [Compound 12, N4,N4-dimethyl-N1-[6-phenyl-2-(4-piperidyl)pyrimidin-4-yl]benzene-1,4-diamine], the 50% inhibitory concentration (IC50) in assay [1] (24 h, read-out: IC50 (CisPt)) amounted to 86.3 µM. For the molecule `COc1ccc(Nc2cc(-c3ccccc3)nc(C3CCOCC3)n2)cc1` [Compound 17, N-(4-methoxyphenyl)-6-phenyl-2-tetrahydropyran-4-yl-pyrimidin-4-amine], the IC50 in assay [1] (24 h, read-out: IC50 (alone)) was over 50 µM; in assay [1] (setting [4]), over 50 µM.

Regarding `COc1cccc(Nc2cc(-c3ccccc3)nc(C3CCCNC3)n2)c1` (stereo not shown) [Compound 11, N-(3-methoxyphenyl)-6-phenyl-2-(3-piperidyl)pyrimidin-4-amine], the IC50 in assay [1] (setting [4]) is 27.8 µM.

Regarding `COc1ccc(-c2cc(Nc3ccc(Cl)cc3)nc(C3CCCNC3)n2)cc1` (stereo not shown) [Compound 6], in assay [1] (setting [4]), the IC50 was 17 µM. In the case of `CN(C)c1cccc(Nc2cc(-c3ccccc3)nc(C3CCCNC3)n2)c1` (stereo not shown) [Compound 10, N3,N3-dimethyl-N1-[6-phenyl-2-(3-piperidyl)pyrimidin-4-yl]benzene-1,3-diamine], the IC50 in assay [1] (24 h, read-out: IC50 (alone)) was determined as 45 µM. Regarding `CN(C)c1cccc(Nc2cc(-c3ccccc3)nc(C3CCNCC3)n2)c1` [Compound 14, N3,N3-dimethyl-N1-[6-phenyl-2-(4-piperidyl)pyrimidin-4-yl]benzene-1,3-diamine], the IC50 in assay [1] (setting [4]) is 17.2 µM. For the molecule `COc1ccc(Nc2cc(-c3ccccc3)nc(C3CCNCC3)n2)cc1` [Compound 13, N-(4-methoxyphenyl)-6-phenyl-2-(4-piperidyl)pyrimidin-4-amine], the half-inhibitory concentration (IC50) in assay [1] (setting [4]) is 36.7 µM.
